From BindingDB's records for PubMed 10454469 (Universidad De Sevilla, 1999)
Several values for one entry are separate records, joined by “and”; a condition that tells them apart may be missing. Equal values may be shown once.

Molecular target: Gamma-aminobutyric acid receptor subunit alpha-1 (Rattus norvegicus, UniProt P62813)
Sequence (P62813 whole entry): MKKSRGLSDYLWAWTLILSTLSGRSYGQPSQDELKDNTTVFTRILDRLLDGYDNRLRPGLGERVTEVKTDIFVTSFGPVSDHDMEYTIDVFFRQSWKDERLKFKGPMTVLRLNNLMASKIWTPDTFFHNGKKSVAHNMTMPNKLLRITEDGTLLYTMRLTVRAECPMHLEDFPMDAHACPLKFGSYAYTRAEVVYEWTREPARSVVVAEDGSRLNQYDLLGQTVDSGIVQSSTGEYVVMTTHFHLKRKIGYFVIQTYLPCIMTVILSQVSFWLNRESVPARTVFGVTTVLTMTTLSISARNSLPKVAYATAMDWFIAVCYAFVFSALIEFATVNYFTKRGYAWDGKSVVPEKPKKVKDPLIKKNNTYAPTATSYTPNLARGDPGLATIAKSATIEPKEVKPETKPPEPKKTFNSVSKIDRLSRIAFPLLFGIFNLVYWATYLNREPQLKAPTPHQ

## Cc1nnc2ccc(-c3cccc(C(F)(F)F)c3)nn12
  Ki: 0.7 nM and 0.81 nM
